Measurements as given in PubChem BioAssay (NCI).
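Growth conditions: 96-well plates. Treatment: test compound, 48 hours, 5 concentrations. Analysis: linear interpolation between bracketing concentrations; unreached endpoints set to highest concentration. GI50 = concentration required for 50% inhibition of growth. TGI is the concentration that stops growth completely.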

Tests used:
Assay in all cases: NCI anticancer screen, dose series, 48 h
SF-539 CNS = system: SF-539 CNS
IGROV1 ovarian = system: IGROV1 ovarian
HOP-62 NSCLC = system: HOP-62 NSCLC
SK-MEL-2 melanoma = system: SK-MEL-2 melanoma
UACC-257 melanoma = system: UACC-257 melanoma
SN12C renal = system: SN12C renal
PC-3 prostate = system: PC-3 prostate
HL-60(TB) leukemia = system: HL-60(TB) leukemia
MCF7 breast = system: MCF7 breast
SF-268 CNS = system: SF-268 CNS
UACC-62 melanoma = system: UACC-62 melanoma
COLO 205 colon = system: COLO 205 colon
A549 NSCLC = system: A549 NSCLC
SW-620 colon = system: SW-620 colon
SNB-19 CNS = system: SNB-19 CNS
EKVX NSCLC = system: EKVX NSCLC
MOLT-4 leukemia = system: MOLT-4 leukemia
TK-10 renal = system: TK-10 renal
K-562 leukemia = system: K-562 leukemia
NCI-H460 lung = system: NCI-H460 lung
NCI-H522 lung = system: NCI-H522 lung
HCT-15 colon = system: HCT-15 colon
OVCAR-3 ovarian = system: OVCAR-3 ovarian
OVCAR-4 ovarian = system: OVCAR-4 ovarian
MDA-MB-231 breast = system: MDA-MB-231 breast
SR leukemia = system: SR leukemia
M14 melanoma = system: M14 melanoma
UO-31 renal = system: UO-31 renal
NCI-H226 lung = system: NCI-H226 lung
ACHN renal = system: ACHN renal
SF-295 CNS = system: SF-295 CNS
CAKI-1 renal = system: CAKI-1 renal
T-47D breast = system: T-47D breast
HCT-116 colon = system: HCT-116 colon
SNB-75 CNS = system: SNB-75 CNS
NCI-H23 lung = system: NCI-H23 lung
LOX IMVI melanoma = system: LOX IMVI melanoma
BT-549 breast = system: BT-549 breast
SK-OV-3 ovarian = system: SK-OV-3 ovarian
OVCAR-5 ovarian = system: OVCAR-5 ovarian
DU-145 prostate = system: DU-145 prostate
HOP-92 NSCLC = system: HOP-92 NSCLC
RPMI-8226 leukemia = system: RPMI-8226 leukemia
NCI/ADR-RES ovarian = system: NCI/ADR-RES ovarian
RXF 393 renal = system: RXF 393 renal
HS 578T breast = system: HS 578T breast
KM12 colon = system: KM12 colon
MDA-MB-435 = system: MDA-MB-435
786-0 renal = system: 786-0 renal
U251 CNS = system: U251 CNS
SK-MEL-5 melanoma = system: SK-MEL-5 melanoma
OVCAR-8 ovarian = system: OVCAR-8 ovarian

## CC1=C(C(=O)Nc2ccc(Cl)c(Cl)c2)C(c2cccc(Cl)c2)NC(=O)N1 (centres undefined)
SF-539 CNS
  GI50: 6.48 µM
  TGI: 13.2 µM
IGROV1 ovarian
  GI50: 7.51 µM
  TGI: 21.6 µM
HOP-62 NSCLC
  GI50: 10.4 µM
  TGI: 20.5 µM
SK-MEL-2 melanoma
  GI50: 9.95 µM
  TGI: 19.3 µM
UACC-257 melanoma
  GI50: 12.2 µM
  TGI: 25.6 µM
SN12C renal
  GI50: 8.53 µM
  TGI: 16.8 µM
PC-3 prostate
  GI50: > 50 µM
  TGI: > 50 µM
HL-60(TB) leukemia
  GI50: 10.6 µM
  TGI: > 35.7 µM
MCF7 breast
  GI50: 2.11 µM
  TGI: 13.5 µM
SF-268 CNS
  GI50: 7.85 µM
  TGI: 17.4 µM
UACC-62 melanoma
  GI50: 5.9 µM
  TGI: 12.3 µM
COLO 205 colon
  GI50: 9.42 µM
  TGI: 21.2 µM
A549 NSCLC
  GI50: 17.3 µM
  TGI: > 50 µM
SW-620 colon
  GI50: 12.6 µM
  TGI: > 29.4 µM
SNB-19 CNS
  GI50: 9.52 µM
  TGI: 21 µM
EKVX NSCLC
  GI50: 7.84 µM
  TGI: 16.2 µM
MOLT-4 leukemia
  GI50: 4.99 µM
  TGI: > 23.3 µM
TK-10 renal
  GI50: 0.22 µM
  TGI: 0.346 µM
K-562 leukemia
  GI50: 13.6 µM
  TGI: 48.4 µM
NCI-H460 lung
  GI50: 8.5 µM
  TGI: 20.1 µM
NCI-H522 lung
  GI50: 9.53 µM
  TGI: 18.5 µM
HCT-15 colon
  GI50: 9.06 µM
  TGI: 19.2 µM
OVCAR-3 ovarian
  GI50: 0.838 µM
  TGI: 9.13 µM
OVCAR-4 ovarian
  GI50: 14.1 µM
  TGI: > 50 µM
MDA-MB-231 breast
  GI50: 4.44 µM
  TGI: 11.7 µM
SR leukemia
  GI50: 22.3 µM
  TGI: > 50 µM
M14 melanoma
  GI50: 7.79 µM
  TGI: 16.1 µM
UO-31 renal
  GI50: 8.2 µM
  TGI: 15.9 µM
NCI-H226 lung
  GI50: 7.69 µM
  TGI: 18.6 µM
ACHN renal
  GI50: 9.07 µM
  TGI: 20.8 µM
SF-295 CNS
  GI50: 1.04 µM
  TGI: 5.12 µM
CAKI-1 renal
  GI50: 9.42 µM
  TGI: 19.9 µM
T-47D breast
  GI50: 19.2 µM
  TGI: > 50 µM
HCT-116 colon
  GI50: 12 µM
  TGI: > 50 µM
SNB-75 CNS
  GI50: 9.67 µM
  TGI: 28.7 µM
NCI-H23 lung
  GI50: 12.7 µM
  TGI: 28.5 µM
LOX IMVI melanoma
  GI50: 7.66 µM
  TGI: 16.2 µM
BT-549 breast
  GI50: 6.42 µM
  TGI: 13.4 µM
SK-OV-3 ovarian
  GI50: 10.6 µM
  TGI: 20.7 µM
OVCAR-5 ovarian
  GI50: 11.2 µM
  TGI: 30.9 µM
DU-145 prostate
  GI50: 7.58 µM
  TGI: 14.3 µM
HOP-92 NSCLC
  GI50: 18.3 µM
  TGI: > 28.7 µM
RPMI-8226 leukemia
  GI50: > 17 µM
  TGI: > 30.1 µM
NCI/ADR-RES ovarian
  GI50: 13.3 µM
  TGI: 33.5 µM
RXF 393 renal
  GI50: 13.8 µM
  TGI: 32.6 µM
HS 578T breast
  GI50: 9.68 µM
  TGI: 22.6 µM
KM12 colon
  GI50: 0.239 µM
  TGI: 2.48 µM
MDA-MB-435
  GI50: 0.464 µM
  TGI: 1.92 µM
786-0 renal
  GI50: 10.2 µM
  TGI: 28.3 µM
U251 CNS
  GI50: 8.32 µM
  TGI: 17 µM
SK-MEL-5 melanoma
  GI50: 8.93 µM
  TGI: 17.4 µM
OVCAR-8 ovarian
  GI50: 14.8 µM
  TGI: > 37.7 µM
